In ChEMBL document CHEMBL5584324, “Exploiting spirooxindoles for dual DNA targeting/CDK2 inhibition and simultaneous mitigation of oxidative stress towards selective NSCLC therapy; synthesis, evaluation, and molecular modelling studies” (RSC Med Chem, 2024):
Activity calls are given as the source filed them. No cut-off for these calls is given here.

Assays:
A549 [1] = experiment: Cytotoxicity against human A549 cells assessed as morphological damage incubated for 72 hrs by inverted phase contrast microscopic analysis; format: functional, cell-based
NCI-H460 = experiment: Cytotoxicity against human NCI-H460 cells incubated for 72 hrs by MTT assay; settings: NCI-H460, 72 h
Calf thymus DNA [2] = experiment: Binding affinity to calf thymus DNA assessed as disruption of DNA by measuring increase in TB3+ fluorescence upto 4 uM incubated for 24 hrs followed by biosensor TbCl3 addition by fluorescence spectrophotometric analysis; format: tissue-based; settings: Bos taurus
WI-38 = experiment: Cytotoxicity against human WI-38 cells by measuring effective concentration incubated for 72 hrs by MTT assay; format: toxicity, cell-based; settings: wi-38, 72 h
Calf thymus DNA [3] = experiment: Binding affinity to calf thymus DNA assessed as disruption of DNA by measuring increase in TB3+ fluorescence at 35.3 nM incubated for 24 hrs followed by biosensor TbCl3 addition by fluorescence spectrophotometric analysis; format: tissue-based; settings: Bos taurus
[4] = Cytotoxicity against human WI-38 cells incubated for 72 hrs by MTT assay; format: toxicity, cell-based
A549 [5] = experiment: cells; settings: Homo sapiens, A549, 72 h
Description: Cytotoxicity against human A549 cells incubated for 72 hrs by MTT assay

Calf thymus DNA [6] = experiment: Binding affinity to calf thymus DNA assessed as disruption of DNA by measuring increase in TB3+ fluorescence at 5 uM incubated for 24 hrs followed by biosensor TbCl3 addition by fluorescence spectrophotometric analysis; format: tissue-based; settings: Bos taurus
[7] = Selectivity index, ratio of IC50 for cytotoxicity against human WI-38 cells to IC50 for cytotoxicity against human A549 cells; format: toxicity, cell-based; settings: WI-38 cells versus A549 cells, read-out: Ratio IC50
[8] = Selectivity index, ratio of IC50 for cytotoxicity against human WI-38 cells to IC50 for cytotoxicity against human NCI-H460 cells; format: toxicity, cell-based; settings: WI-38 cells versus NCI-H460 cells, read-out: Ratio IC50
A549 [9] = experiment: Induction of cell cycle arrest in human A549 cells assessed as accumulation of cells at G2/M phase at 0.089 uM incubated for 48 hrs by propidium iodide staining based immunocytometric analysis (reference value: 18.31 %); format: functional
A549 [10] = experiment: Induction of apoptosis in human A549 cells assessed as late apoptotic cells at 0.089 uM incubated for 48 hrs by annexin V-FITC/PI staining based flow cytometry (reference value: 0.28 %); format: functional
A549 [11] = experiment: Induction of apoptosis in human A549 cells assessed as necrotic cells at 0.089 uM incubated for 48 hrs by annexin V-FITC/PI staining based flow cytometry (reference value: 1.21 %); format: functional
[12] = Antioxidant activity assessed as DPPH radical scavenging activity at 10 uM incubated for 30 mins by absorbance based assay relative to trolox; format: functional
Calf thymus DNA [13] = experiment: Binding affinity to calf thymus DNA assessed as disruption of DNA by measuring increase in TB3+ fluorescence at 24.6 nM incubated for 24 hrs followed by biosensor TbCl3 addition by fluorescence spectrophotometric analysis; format: tissue-based; settings: Bos taurus
[14] = Antioxidant activity assessed as DPPH radical scavenging activity at 100 uM incubated for 30 mins by absorbance based assay (reference value: […] %); format: functional
[15] = Antioxidant activity assessed as DPPH radical scavenging activity incubated for 30 mins by absorbance based assay; format: functional
A549 [16] = experiment: Induction of cell cycle arrest in human A549 cells assessed as accumulation of cells at S phase at 0.089 uM incubated for 48 hrs by propidium iodide staining based immunocytometric analysis (reference value: 36.94 %); format: functional
A549 [17] = experiment: Induction of cell cycle arrest in human A549 cells assessed as accumulation of aggregates at 0.089 uM incubated for 48 hrs by propidium iodide staining based immunocytometric analysis (reference value: 1.81 %); format: functional
A549 [18] = experiment: Induction of cell cycle arrest in human A549 cells assessed as accumulation of cells at G1 phase at 0.089 uM incubated for 48 hrs by propidium iodide staining based immunocytometric analysis (reference value: 44.75 %); format: functional
A549 [19] = experiment: Induction of apoptosis in human A549 cells assessed as early apoptotic cells at 0.089 uM incubated for 48 hrs by annexin V-FITC/PI staining based flow cytometry (reference value: 0.37 %); format: functional
A549 [20] = experiment: Induction of cell cycle arrest in human A549 cells assessed as accumulation of cell debris at 0.089 uM incubated for 48 hrs by propidium iodide staining based immunocytometric analysis (reference value: 2.25 %); format: functional

Row | Compound | IC50 (NCI-H460) [nM] | EC100 (WI-38) [µM] | IC50 at 72 h [4] [nM] | IC50 (A549 [5]) [nM] | selectivity ratio [7] | selectivity ratio [8] | further results
1 | O=C(c1ccccc1[N+](=O)[O-])[C@H]1[C@H](c2cn(-c3ccccc3)nc2-c2ccccc2)[C@@H]2CC3CCCCC3N2[C@]12C(=O)Nc1ccc(Cl)cc12 (some centres undefined) | 1340 | 0.094 | 294 | 96 | – | – | Activity (A549 [1]): Active; Activity (Calf thymus DNA [2]): Active; Activity (Calf thymus DNA [3]): Active; Activity (Calf thymus DNA [6]): Active
2 | O=C(c1ccc(Br)cc1)[C@H]1[C@H](c2cn(-c3ccccc3)nc2-c2ccccc2)[C@@H]2CC3CCCCC3N2[C@]12C(=O)Nc1ccccc12 (some centres undefined) | 725 | 0.271 | 466 | 158 | 2.95 | 0.64 | –
3 | O=C(c1ccccc1)[C@H]1[C@H](c2cn(-c3ccccc3)nc2-c2ccccc2)[C@@H]2CC3CCCCC3N2[C@]12C(=O)Nc1ccc(Cl)cc12 (some centres undefined) | 529 | 0.28 | 467 | 231 | 2.02 | 0.88 | –
4 | COc1ccc2c(c1)[C@@]1(C(=O)N2)[C@@H](C(=O)c2ccc([N+](=O)[O-])cc2)[C@H](c2cn(-c3ccccc3)nc2-c2ccccc2)[C@@H]2CC3CCCCC3N21 (some centres undefined) | 895 | 0.366 | 773 | 212 | 3.65 | 0.86 | –
5 | O=C(c1ccc(Br)cc1)[C@H]1[C@H](c2cn(-c3ccccc3)nc2-c2ccccc2)[C@@H]2CC3CCCCC3N2[C@]12C(=O)Nc1cc(Cl)ccc12 (some centres undefined) | 1420 | 0.594 | 1040 | 205 | 5.05 | 0.73 | –
6 | O=C(c1ccc([N+](=O)[O-])cc1)[C@H]1[C@H](c2cn(-c3ccccc3)nc2-c2ccccc2)[C@@H]2CC3CCCCC3N2[C@]12C(=O)Nc1ccc(Cl)cc12 (some centres undefined) | 2460 | 0.249 | 480 | 89 | – | – | Activity (A549 [9]): 28.16%; Activity (A549 [1]): Active; Activity (A549 [10]): 15.13%; Activity (A549 [11]): 7.46%; Activity [12]: 60%; Activity (Calf thymus DNA [13]): Active; Activity [14]: 88.4%; Activity (Calf thymus DNA [2]): Active; Activity [15]: Dose-Dependent Effect; Activity (A549 [16]): 33.28%; Activity (A549 [17]): 1.96%; Activity (Calf thymus DNA [6]): Active; Activity (A549 [18]): 38.56%; Activity (A549 [19]): 25.72%; Activity (A549 [20]): 2.03%
7 | O=C(c1ccccc1[N+](=O)[O-])[C@H]1[C@H](c2cn(-c3ccccc3)nc2-c2ccccc2)[C@@H]2CC3CCCCC3N2[C@]12C(=O)Nc1cc(Cl)ccc12 (some centres undefined) | 911 | 0.142 | 435 | 130 | 3.35 | 0.48 | –
8 | O=C(c1ccccc1[N+](=O)[O-])[C@H]1[C@H](c2cn(-c3ccccc3)nc2-c2ccccc2)[C@@H]2CC3CCCCC3N2[C@]12C(=O)Nc1ccccc12 (some centres undefined) | 613 | 0.224 | 413 | 170 | 2.43 | 0.67 | –
9 | CN1C[C@@H](c2cn(-c3ccccc3)nc2-c2ccccc2)[C@H](C(=O)c2ccccc2)[C@@]12C(=O)Nc1ccc(Cl)cc12 | 417 | 0.308 | 545 | 283 | 1.93 | 1.3 | –
10 | CN1C[C@@H](c2cn(-c3ccccc3)nc2-c2ccccc2)[C@H](C(=O)c2ccccc2)[C@@]12C(=O)Nc1ccccc12 | 761 | 0.59 | 1300 | 344 | 3.79 | 1.71 | –
11 | O=C(c1ccccc1)[C@H]1[C@H](c2cn(-c3ccccc3)nc2-c2ccccc2)[C@@H]2CC3CCCCC3N2[C@]12C(=O)Nc1cc(Cl)ccc12 (some centres undefined) | 964 | 0.267 | 509 | 192 | 2.65 | 0.53 | –
12 | COc1ccc2c(c1)[C@@]1(C(=O)N2)[C@@H](C(=O)c2ccc([N+](=O)[O-])cc2)[C@H](c2cn(-c3ccccc3)nc2-c2ccccc2)CN1C | 1140 | 0.539 | 1490 | 235 | 6.34 | 1.3 | –
13 | COc1cccc2c1C(=O)c1c(O)c3c(c(O)c1C2=O)C[C@@](O)(C(=O)CO)C[C@@H]3O[C@H]1C[C@H](N)[C@H](O)[C@H](C)O1 [DOXORUBICIN] | – | 0.033 | 129 | – | – | – | Activity (Calf thymus DNA [6]): Active
14 | O=C(c1ccccc1)[C@H]1[C@H](c2cn(-c3ccccc3)nc2-c2ccccc2)[C@@H]2CC3CCCCC3N2[C@]12C(=O)Nc1ccccc12 (some centres undefined) | 537 | 0.451 | 825 | 307 | 2.69 | 1.53 | –
15 | CN1C[C@@H](c2cn(-c3ccccc3)nc2-c2ccccc2)[C@H](C(=O)c2ccc([N+](=O)[O-])cc2)[C@@]12C(=O)Nc1ccccc12 | 748 | 0.375 | 741 | 223 | 3.32 | 0.99 | –
16 | O=C(c1ccc([N+](=O)[O-])cc1)[C@H]1[C@H](c2cn(-c3ccccc3)nc2-c2ccccc2)[C@@H]2CC3CCCCC3N2[C@]12C(=O)Nc1ccccc12 (some centres undefined) | 909 | 0.41 | 712 | 205 | 3.47 | 0.78 | –
17 | CN1C[C@@H](c2cn(-c3ccccc3)nc2-c2ccccc2)[C@H](C(=O)c2ccc([N+](=O)[O-])cc2)[C@@]12C(=O)Nc1ccc(Cl)cc12 | 1030 | 0.287 | 480 | 131 | 3.66 | 0.46 | –
